Values joined by “and” are separate entries in the source; they are usually repeats but may differ in a detail not shown here. Equal values may be shown once. Where a SMILES comes first, the peptide text is derived from it. Where no end group is shown, it is not given here.
system: E. coli; test: not given; conditions: peptide expressed fused to GST in E. coli; cited from earlier work

For SSGWMLDPIAGKWSR [Peptide 920], the Bacterial growth is listed as “inhibited bacterial growth”.

molecular target: T1, E. coli LpxA (Escherichia coli, UniProt P0A722); test: LpxA acyltransferase inhibition assay ([α-32P]UDP-GlcNAc conversion, TLC); type: biochemical; parameters: made in house; host or cells: E. coli BL21(DE3)/pLysE/pTO1; conditions: 1 µM UDP-GlcNAc, 1 µM R-3-hydroxymyristoyl-ACP, 1 nM LpxA, 30 °C, 10% DMSO; SD of triplicates
Method: The peptides were assayed for acyl transferase inhibitory activity under conditions where the concentrations of UDP-GlcNAc and R-3-hydroxymyristoyl-ACP were 1 µM each. […] Peptide CR21 and CR23 still have good inhibitory potential of 10 μM albeit lower than peptide CR20.
The LpxA enzymatic reaction monitors the conversion of [α-^32P]UDP-GlcNAc to [α-^32P]UDP-3-O-(R-3-hydroxymyristoyl)- GlcNAc. The assay components consist of 40 mM HEPES buffer, pH 8, 1 mg/ml BSA, 1 μM R-3-hydroxymyristoyl-ACP, and 1 μM [α-^32P]UDP-GlcNAc (2 × 10^6 cpm/nmol). […] The final concentration of DMSO was adjusted to 10% to match the peptide solvent in all enzymatic assays.
The reactions were started by the addition of 1 nM of LpxA and incubated at 30 °C for a maximum of 10 min. Three or four time points were collected during this time. Termination of the reaction was accomplished by the addition of 1 μl portions onto a silica thin layer chromatography (TLC) plate. The TLC plates were air dried for 10 min before developing in chloroform/methanol/water/acetic acid (25:15:4:2, v/v). Plates were exposed to PhosphorImager screens overnight, and the data were evaluated with Molecular Dynamics PhosphorImager equipped with ImageQuant software. […] To determine the IC50 at 30 °C, the data were fit to the following equations,1 vi/vc=IC50/(I+IC50) or1a %activity=100/(1+I/IC50) vi represents the initial rate, at given concentrations of inhibitor, vc represents the initial velocity of the control reaction without inhibitor, and I represents the inhibitor concentration. The IC50 determination represents the concentration of inhibitor needed to inhibit 50% of the enzyme activity.

T1 sequence (P0A722 whole entry): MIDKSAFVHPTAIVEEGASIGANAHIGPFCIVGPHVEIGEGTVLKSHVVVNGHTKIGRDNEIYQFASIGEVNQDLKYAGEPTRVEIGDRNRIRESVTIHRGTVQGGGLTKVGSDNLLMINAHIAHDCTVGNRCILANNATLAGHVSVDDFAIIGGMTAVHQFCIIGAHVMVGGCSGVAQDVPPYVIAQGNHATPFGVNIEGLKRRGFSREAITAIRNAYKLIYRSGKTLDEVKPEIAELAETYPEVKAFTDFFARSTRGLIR

`CSCC[C@H](NC(=O)[C@@H](N)Cc1c[nH]c2ccccc12)C(=O)N[C@@H](CC(C)C)C(=O)N[C@@H](CC(=O)O)C(=O)O` [CR26, WMLD] (H-WMLD-OH) and GWMLDPIA [CR24] cannot be ordered by IC50: > 100 µM for the first, > 100 µM for the second.

Compared with GWMLDPIAGKW [CR23], GWMLDPIAGKWSR [CR19] is 130-fold lower in IC50: 10 ± 0.3 µM for the first, 0.077 ± 0.003 µM for the second.

SSGWMLDPIAGKW [CR22] and SSGWMLDPIAGKWS [CR21] are within error of each other in IC50: 9 ± 2.2 µM for the first, 12 ± 1.4 µM for the second.

With WMLDPI [CR25, WMLDPI] the IC50 was > 100 µM.

In the case of WMLDPIAGKWSR [CR20], the IC50 is reported as ~0.05 µM and 0.05 µM.

molecular target: T1, E. coli LpxA; test: not given; conditions: previous enzymatic evidence; cited from earlier work

In the case of SSGWMLDPIAGKWSR [Peptide 920], the Mode of inhibition is listed as “largely competitive with respect to ACP”.
